pKd: −log10 of the molar value. {6-FAM} = 6-carboxyfluorescein label; {Dabcyl} = Dabcyl quencher
Assays:
α-thrombin [1] = biological target: T1, α-thrombin (Homo sapiens, UniProt P00734); assay: FRET-based signaling aptamer binding to α-thrombin (6-FAM quenching); settings: 100 nM aptamer, 500 nM α-thrombin
T1 construct: Human oa-thrombin (M.W. ˜36.7 kDa); purchased Haematologic Technologies Inc. (Essex Junction, Vt.)
From the text: Dye-labeled aptamers were obtained from Integrated DNA Technologies, Inc. (Coralville, Iowa). The sequences of the 15mer and 27mer thrombin-aptamer are 5′-GGT TGG TGT GGT TGG-3′ (SEQ ID NO 1), and 5′-ACCCGTGGTAGGGTAGGATGGGGTGGT-3′ (SEQ ID NO 2) respectively. For FRET-based assays, both aptamers were dual-labeled with 6-FAM at the 5′ end and Dabcyl at the 3′ end. For fluorescence anisotropy assays, both aptamer sequences were labeled with only TAMRA at the 3′ end. A control 15mer aptamer was labeled with only 6-FAM at the 3′ end. All aptamers were purified with HPLC. […]
Fluorescence measurements were performed on a Fluorolog-3 spectrofluorometer (Jobin Yvon Inc., Edison, N.J.). For FRET-based assays, the fluorescence of 6-FAM was monitored with an excitation wavelength of 488 mn and an emission wavelength of 515 nm. For anisotropy-based experiments, the fluorescence of TAMRA was monitored with 555 nm as the excitation and 580 mn as the emission wavelength. […] In the aptamer/thrombin binding experiments, a very small volume of α-thrombin at a high concentration was added to an aptamer solution in the cuvette to make a molar ratio of aptamer and thrombin 1:1, and the fluorescence signals were recorded before and after the addition. […]

thrombin = biological target: T2, thrombin (Homo sapiens, UniProt P00734); assay: Kinetic studies of competitive assays (order of incubation, concentration dependence); format: binding; settings: 100 nM FQ-15Ap, 100 nM thrombin, 500 nM HirF, 5° C., 6-FAM fluorescence
T2 construct: Human oa-thrombin (M.W. ˜36.7 kDa); purchased Haematologic Technologies Inc. (Essex Junction, Vt.)
Description: Experiments were conducted in a 100 μL cuvette in the spectrofluorometer. While the detection system was running, the reaction samples were quickly mixed together. Data were recorded from the point of mixing to when the signal reached the plateau and stabilized. The reaction was regarded completed when the signal was at the plateau. […] The temperatures of reactions were maintained using a RTE-111 water bath/circulator (Neslab Instruments, Inc., Newington, N.H.).
In order to evaluate the possibilities of such false negatives in the assays, a comparison of the reaction rates of aptamer and prey proteins with thrombin were conducted. One direct way to conduct the comparison is to change the order the aptamer and the prey protein are incubated with thrombin. In one experiment, the prey protein was incubated with thrombin first and then the aptamer was used to displace the prey protein from the thrombin/protein complex. In another experiment, the order of adding aptamer and prey protein to thrombin was reversed. […]
Another indirect method was also used to study the effects of aptamer on thrombin/protein interactions. […] Different concentrations of AT3 were added to thrombin/T-15Ap incubation solution and the anisotropy of the aptamer was monitored as AT3 would displace T-15Ap.

α-thrombin [2] = biological target: T1, α-thrombin; settings: stated as known property; cited from earlier work
α-thrombin [3] = biological target: T1, α-thrombin; settings: reported value used for the calculation; read-out: reported 15mer aptamer-thrombin Kd/AT; cited from earlier work
α-thrombin [4] = biological target: T1, α-thrombin; assay: Fluorescence anisotropy of TAMRA-labeled aptamer on binding α-thrombin; settings: aptamer/α-thrombin 1:1
Description: Fluorescence measurements were performed on a Fluorolog-3 spectrofluorometer (Jobin Yvon Inc., Edison, N.J.). For FRET-based assays, the fluorescence of 6-FAM was monitored with an excitation wavelength of 488 mn and an emission wavelength of 515 nm. For anisotropy-based experiments, the fluorescence of TAMRA was monitored with 555 nm as the excitation and 580 mn as the emission wavelength. Slit widths were varied to yield the best signals. All measurements were carried out in a 100 μL cuvette. In the aptamer/thrombin binding experiments, a very small volume of α-thrombin at a high concentration was added to an aptamer solution in the cuvette to make a molar ratio of aptamer and thrombin 1:1, and the fluorescence signals were recorded before and after the addition. […]
where the subscripts V and H refer to the orientation (vertical or horizontal) of the polarizers for the intensity measurements, with the first subscript indicating the position of the excitation polarizer and the second for the emission polarizer. G is the G-factor of the spectrofluorometer, which is calculated as G=IHV/IHH. […] For a certain dye, the G-factor would be measured and used throughout the experiments that used the same dye. […] For TAMRA, all intensities were measured at an emission wavelength of 580 nm with an excitation wavelength of 555 nm. […]

5′-(6-FAM)-ACCCGTGGTAGGGTAGGATGGGGTGGT-(Dabcyl)-3′ [FQ-27Ap]
6-FAM fluorescence change upon addition of α-thrombin (α-thrombin [1]): decreased 6-FAM fluorescence

5′-(6-FAM)-GGT TGG TGT GGT TGG-(Dabcyl)-3′ (DNA GGTTGGTGTGGTTGG; DNA, 5' {6-FAM}, 3' {Dabcyl}, backbone not given here) [FQ-15Ap, 15mer thrombin aptamer dual-labeled with 6-FAM at the 5′ end and Dabcyl at the 3′ end]
drop of 6-FAM fluorescence when excess α-thrombin was added (α-thrombin [1]; room temperature, 50 mM NaCl buffer): about 55% | kinetic profile depending on order of incubation with thrombin (thrombin): aptamer replacing HirF was even slower than HirF replacing aptamer

5′-ACCCGTGGTAGGGTAGGATGGGGTGGT-3′ (DNA ACCCGTGGTAGGGTAGGATGGGGTGGT; chemistry not given here) [27Ap]
capability to inhibit the enzymatic activity of thrombin (α-thrombin [2]): does not

5′-GGT TGG TGT GGT TGG-3′ [15Ap]
pKd (α-thrombin [3]): 7.12 | capability to inhibit the enzymatic activity of thrombin (α-thrombin [2]): has the protein-inhibition capability

5′-GGT TGG TGT GGT TGG-(TAMRA)-3′ [T-15Ap]
increase of anisotropy on mixing with α-thrombin (α-thrombin [4]): more than 30%

From patent US20090208936A1, “IDENTIFICATION OF MOLECULAR INTERACTIONS AND THERAPEUTIC USES THEREOF” (Univeristy of Florida Research Foundations Inc., priority 2005, published 2009)
